# In patent US20230105212A1, “BIPHENYL DERIVATIVE INHIBITOR, PREPARATION METHOD THEREFOR AND USE THEREOF” (SHANGHAI HANSOH BIOMEDICAL CO., LTD., priority 2020, published 2023):
# Columns and labels:
# [1] = target: T1, PD-L1 protein on the surface of MC38-hPDL1 tumor cells (Homo sapiens, UniProt Q9NZQ7); test: Induction of endocytosis of PD-L1 on the surface of tumor cells (flow cytometry); assay type: cell-based; settings: 16 hours incubation; for Emax: MC38-hPDL1 cells, read-out: MC38 maximum endocytosis rate; for IC50: inducing endocytosis of PD-L1, MC38-hPDL1 cells, read-out: MC38 IC50
# T1 construct: expressed in transfected cells; host or cells: MC38-hPDL1 (mouse colon cancer cells)
# T1 sequence (Q9NZQ7 19-290): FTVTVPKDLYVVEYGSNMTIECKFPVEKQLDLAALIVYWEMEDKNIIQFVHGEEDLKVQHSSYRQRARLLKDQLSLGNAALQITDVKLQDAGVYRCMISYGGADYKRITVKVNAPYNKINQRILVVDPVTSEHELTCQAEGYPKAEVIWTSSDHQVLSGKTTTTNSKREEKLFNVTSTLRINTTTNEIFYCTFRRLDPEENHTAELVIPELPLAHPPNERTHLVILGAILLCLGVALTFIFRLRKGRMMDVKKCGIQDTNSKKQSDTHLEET
# Source text: Test Embodiment 2. Test of the Activity of Compounds of the Present Disclosure on Inducing the Endocytosis of PD-L1 Protein on the Surface of Tumor Cells
# Experimental purpose: The purpose of this test embodiment was to test the activity of the compound on inducing the endocytosis of PD-L1 on the surface of tumor cells.
# Experimental method: In order to test the activity of the compound on inducing the endocytosis of PD-L1, in this experiment, the activity of the compound on inducing the endocytosis of PD-L1 was tested by detecting the change degree of PD-L1 on the tumor cell surface with fluorescently labeled anti-PD-L1 antibody, and the IC50 of activity of the compound on inducing the endocytosis of PD-L1 was obtained.
# The mouse colon cancer cells MC38-hPDL1 with high expression of hPD-L1 were collected, and adjusted to a suitable density and plated in a 24-well plate, and placed in a 37° C., 5% CO2 incubator to adhere overnight. Compounds were prepared into different concentrations by medium and added to a 24-well plate, and a vehicle control well was set up. After the cells were incubated in a 37° C., 5% CO2 incubator for 16 hours, the 24-well plate was taken out, and MC38-hPDL1 cells with different treatments in the plate were collected. After the cells were washed once with FACS buffer (PBS containing 0.5% BSA), and the cells were prepared to an appropriate density with FACS buffer. PE Mouse Anti-Human CD274 antibody (BD Pharmingen #557924) was added, and the cells were shaken at room temperature and incubated for 30 minutes without light, then the cells were washed twice with FACS buffer, resuspended in 100 μL of PBS, and a flow cytometer was used to detect the fluorescent signal on the cell surface, and the isotype control was set as a negative control.
# The endocytosis rate of the compounds was calculated from the fluorescence signals of different treatment groups, and the compound concentration and endocytosis rate were fitted by nonlinear regression using GraphPad Prism software, and IC50 values were obtained, as shown in Table 2.
# human PD-1/PD-L1 binding = target: T2, human PD-1/PD-L1 binding (Homo sapiens, UniProt Q9NZQ7); test: Inhibition of human PD-1/PD-L1 binding (TR-FRET/HTRF); settings: TR-FRET, PD-L1-His and PD-1-Fc; read-out: PD-1/PD-L1 binding IC50
# T2 construct: PD-L1-His protein (19 to 238 amino acids) (Abcam #ab167713); purchased Abcam (PD-L1-His); R&D (PD-1-Fc) ab167713; 1086-PD
# T2 sequence (Q9NZQ7 19-238): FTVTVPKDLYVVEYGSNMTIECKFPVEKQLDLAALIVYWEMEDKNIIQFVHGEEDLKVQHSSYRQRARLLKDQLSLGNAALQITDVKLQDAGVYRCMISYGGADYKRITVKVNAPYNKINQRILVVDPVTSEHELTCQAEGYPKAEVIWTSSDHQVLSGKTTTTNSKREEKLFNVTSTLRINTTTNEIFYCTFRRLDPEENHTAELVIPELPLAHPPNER
# Source text: Test Embodiment 1: Test of Inhibitory Effect of the Compounds of the Present Disclosure on Human PD-1/PD-L1 Binding
# Experimental purpose: The purpose of this test embodiment was to measure the inhibitory activity of the compounds on human PD-1/PD-L1 binding.
# Experimental reagents: Binding Domain diluent buffer was purchased from Cisbio Company, Cat. No.: 62DLBDDF; MAb Anti-6HIS Eu cryptate Gold was purchased from Cisbio Company with the article number of 61HI2KLA; PAb Anti Human IgG-XL665 was purchased from Cisbio Company with the article number of 61HFCXLB; PD-L1-His protein was purchased from Abcam Company with the article number of ab167713; PD-1-Fc protein was purchased from R&D Company with the article number of 1086-PD; Detection buffer was purchased from Cisbio Company with the article number of 62SDBRDD; 384-well plate was purchased from PerkinElmer Company with the article number of 6007290.
# Experimental method: In order to test the inhibitory activity of the compounds on human PD-1/PD-L1 binding, the method of time-resolved fluorescence resonance energy transfer (TR-FRET) was used in this experiment to test the inhibition of the compounds on human PD-1/PD-L1 binding, and the half inhibitory concentration IC50 of inhibitory activity of the compounds on human PD-1/PD-L1 binding was obtained.
# This experiment was performed in a 384-well plate with a total reaction volume of 20 μL. Compounds were diluted to different concentrations (10 μM or 1 μM starting, 3-fold dilution, 11 doses) using assay buffer Binding Domain diluent buffer (Cisbio #62DLBDDF), then PD-L1-His protein (19 to 238 amino acids) (Abcam #ab167713) was diluted to 10 nM with assay buffer, and PD-1-Fc protein (25 to 167 amino acids) (R&D #1086-PD) was diluted to 20 nM with assay buffer; the compound, PD-L1 protein and PD-1 protein were added to a 384-well plate respectively, and the total volume was 10 μL, then centrifuged at 1000 rpm for 1 minute to mix well, and incubated for 60 minutes at room temperature. Then 10 μL of a mixed solution of MAb Anti-6HIS Eu cryptate Gold (Cisbio #61HI2KLA) and PAb Anti Human IgG-XL665 (Cisbio #61HFCXLB) diluted by HTRF Detection buffer was added to each well, and centrifuged at 1000 rpm for 1 minute to mix well. The reaction was carried out at room temperature for 3 hours or at 4° C. overnight, then a microplate reader (BioTek Synergy H1) was put into for reading; the excitation wavelength was 340 nm, and the emission wavelengths were 620 nm and 665 nm.
# The ratio of fluorescence readings at 620 nm and 665 nm (665 nm/620 nm) was calculated, and the inhibition rate was calculated.
SMILES,Emax [1],IC50 [1],IC50 (human PD-1/PD-L1 binding)
"COc1ccnc(NCc2cnc(C(=O)Nc3cccc(-c4cccc(NC(=O)c5nc6c(n5C)CCN(C)C6)c4Cl)c3C)cc2OC)c1 [Embodiment 12, N-(2-Chloro-3′-(4-methoxy-5-(((4-methoxypyridin-2-yl)amino)methyl)picolinamido)-2′-methyl-[1,1′-biphenyl]-3-yl)-1,5-dimethyl-4,5,6,7-tetrahydro-1H-imidazo[4,5-c]pyridine-2-carboxamide]",84%,6.5 nM,–
"COc1cc(C(=O)Nc2cccc(-c3cccc(NC(=O)c4nc5c(n4C)CCN(C)C5)c3Cl)c2C)ncc1CNCc1ncccc1OC [Embodiment 13, N-(2-Chloro-3′-(4-methoxy-5-((((3-methoxypyridin-2-yl)methyl)amino)methyl)picolinamido)-2′-methyl-[1,1′-biphenyl]-3-yl)-1,5-dimethyl-4,5,6,7-tetrahydro-1H-imidazo[4,5-c]pyridine-2-carboxamide]",87%,6.6 nM,–
"COc1cc(C(=O)Nc2cccc(-c3cccc(NC(=O)c4nc5c(n4C)CCN(C)C5)c3Cl)c2C)ncc1CNCC1(F)CCOCC1 [Embodiment 19, N-(2-Chloro-3′-(5-((((4-fluorotetrahydro-2H-pyran-4-yl)methyl)amino)methyl)-4-methoxypicolinamido)-2′-methyl-[1,1′-biphenyl]-3-yl)-1,5-dimethyl-4,5,6,7-tetrahydro-1H-imidazo[4,5-c]pyridine-2-carboxamide]",85%,7 nM,–
"COc1cc(C(=O)Nc2cccc(-c3cccc(NC(=O)c4nc5c(n4C)CCN(C)C5)c3Cl)c2C)ncc1CN1CC[C@@H](F)C1 [Embodiment 25, (R)—N-(2-Chloro-3′-(5-((3-fluoropyrrolidin-1-yl)methyl)-4-methoxypicolinamido)-2′-methyl-[1,1′-biphenyl]-3-yl)-1,5-dimethyl-4,5,6,7-tetrahydro-1H-imidazo[4,5-c]pyridine-2-carboxamide]",95%,0.9 nM,–
"COc1nc(C(=O)Nc2cccc(-c3cccc(NC(=O)c4nc5c(n4C)CCN(C)C5)c3Cl)c2C)ccc1CN[C@@H](C)CO [Embodiment 43, (S)—N-(2-Chloro-3′-(5-(((1-hydroxypropan-2-yl)amino)methyl)-6-methoxypicolinamido)-2′-methyl-[1,1′-biphenyl]-3-yl)-1,5-dimethyl-4,5,6,7-tetrahydro-1H-imidazo[4,5-c]pyridine-2-carboxamide]",–,–,4.1 nM
"COc1cc(NCc2cnc(C(=O)Nc3cccc(-c4cccc(NC(=O)c5nc6c(n5C)CCN(C)C6)c4Cl)c3C)cc2C2CC2)ccn1 [Embodiment 44, N-(2-Chloro-3′-(4-cyclopropyl-5-(((2-methoxypyridin-4-yl)amino)methyl)picolinamido)-2′-methyl-[1,1′-biphenyl]-3-yl)-1,5-dimethyl-4,5,6,7-tetrahydro-1H-imidazo[4,5-c]pyridine-2-carboxamide]",88%,4.2 nM,–
"COc1cc(C(=O)Nc2cccc(-c3cccc(NC(=O)c4nc5c(n4C)CCN(C)C5)c3Cl)c2C)ncc1C(C)(C)O [Embodiment 50, N-(2-Chloro-3′-(5-(2-hydroxypropan-2-yl)-4-methoxypicolinamido)-2′-methyl-[1,1′-biphenyl]-3-yl)-1,5-dimethyl-4,5,6,7-tetrahydro-1H-imidazo[4,5-c]pyridine-2-carboxamide]",–,–,9 nM
"COc1cc(-c2cccc(-c3cccc(NC(=O)c4nc5c(n4C)CCN(C)C5)c3Cl)c2Cl)ncc1CNC1CCOCC1 [Embodiment 57, N-(2,2′-Dichloro-3′-(4-methoxy-5-(((tetrahydro-2H-pyran-4-yl)amino)methyl)pyridin-2-yl)-[1,1′-biphenyl]-3-yl)-1,5-dimethyl-4,5,6,7-tetrahydro-1H-imidazo[4,5-c]pyridine-2-carboxamide]",–,–,3 nM
"COc1cc(-c2cccc(-c3cccc(NC(=O)c4nc5c(n4C)CCN(C)C5)c3Cl)c2C)ncc1CN1CC[C@@H](F)C1 [Embodiment 60, (R)—N-(2-Chloro-3′-(5-((3-fluoropyrrolidin-1-yl)methyl)-4-methoxypyridin-2-yl)-2′-methyl-[1,1′-biphenyl]-3-yl)-1,5-dimethyl-4,5,6,7-tetrahydro-1H-imidazo[4,5-c]pyridine-2-carboxamide]",–,–,6.9 nM
"COc1cc(NCc2cnc(C(=O)Nc3cccc(-c4cccc(NC(=O)c5nc6c(n5C)CCN(C(C)C)C6)c4Cl)c3C)cc2OC)ccn1 [Embodiment 70, N-(2-Chloro-3′-(4-methoxy-5-(((2-methoxypyridin-4-yl)amino)methyl)picolinamido)-2′-methyl-[1,1′-biphenyl]-3-yl)-5-isopropyl-1-methyl-4,5,6,7-tetrahydro-1H-imidazo[4,5-c]pyridine-2-carboxamide]",81%,4 nM,–
"COc1cc(NCc2cnc(C(=O)Nc3cccc(-c4cccc(NC(=O)c5nc6c(n5C)CCN(CC5CC5)C6)c4Cl)c3Cl)cc2OC)ccn1 [Embodiment 83, 5-(Cyclopropylmethyl)-N-(2,2′-dichloro-3′-(4-methoxy-5-(((2-methoxypyridin-4-yl)amino)methyl)picolinamido)-[1,1′-biphenyl]-3-yl)-1-methyl-4,5,6,7-tetrahydro-1H-imidazo[4,5-c]pyridine-2-carboxamide]",–,–,2.7 nM
"CCN1CCc2c(nc(C(=O)Nc3cccc(-c4cccc(NC(=O)c5cc(OC)c(CO)cn5)c4C)c3Cl)n2C)C1 [Embodiment 88, N-(2-Chloro-3′-(5-(hydroxymethyl)-4-methoxypicolinamido)-2′-methyl-[1,1′-biphenyl]-3-yl)-5-ethyl-1-methyl-4,5,6,7-tetrahydro-1H-imidazo[4,5-c]pyridine-2-carboxamide]",–,–,9 nM
"COc1nc(-c2cccc(-c3cccc(NC(=O)c4nc5c(n4C)CCN(C)C5)c3Cl)c2Cl)ccc1CN1CCN(C(=O)C(F)(F)F)CC1 [Embodiment 202, N-(2,2′-Dichloro-3′-(6-methoxy-5-((4-(2,2,2-trifluoroacetyl)piperazin-1-yl)methyl)pyridin-2-yl)-[1,1′-biphenyl]-3-yl)-1,5-dimethyl-4,5,6,7-tetrahydro-1H-imidazo[4,5-c]pyridine-2-carboxamide]",89%,–,–
"COc1nc(-c2cccc(-c3cccc(NC(=O)c4nc5c(n4C)CCN(C)C5)c3Cl)c2Cl)ccc1CN1CCN(S(C)(=O)=O)CC1 [Embodiment 204, N-(2,2′-Dichloro-3′-(6-methoxy-5-((4-(methylsulfonyl)piperazin-1-yl)methyl)pyridin-2-yl)-[1,1′-biphenyl]-3-yl)-1,5-dimethyl-4,5,6,7-tetrahydro-1H-imidazo[4,5-c]pyridine-2-carboxamide]",89%,–,–
